From US8822517B2, “Arylosulfonamides for the treatment of CNS diseases” (Adamed SP. Z O.O., priority 2010, dated 2014)

Experiments:
[1] = target: serotoninergic 5-HT2A receptor (Homo sapiens, UniProt P28223); test: Binding assay 5-HT2A (h), [3H]ketanserin, HEK-293 cells; design: expressed in transfected cells; host or cells: HEK-293 cells; conditions: for inhibition at 1 µM: read-out: 5-HT2A
Outline: (§1)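 Radioligand displacement at 1×10^−6 M compound, with detection by scintillation counting. Nonspecific signal is measured using an excess of non-radioactive ligand.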

adrenergic α1 receptor = test: Binding assay α1 (non-selective), [3H]prazosin, rat cerebral cortex; conditions: percent inhibition of control specific binding; compounds tested at 1×10^−6 M
Outline: as §1

[2] = target: serotoninergic 5-HT7 receptor (Homo sapiens, UniProt P34969); test: Binding assay 5-HT7 (h), [3H]LSD, CHO cells; design: expressed in transfected cells; host or cells: CHO cells; conditions: for inhibition at 1 µM: read-out: 5-HT7
Chain of serotoninergic 5-HT7 receptor (P34969 whole entry): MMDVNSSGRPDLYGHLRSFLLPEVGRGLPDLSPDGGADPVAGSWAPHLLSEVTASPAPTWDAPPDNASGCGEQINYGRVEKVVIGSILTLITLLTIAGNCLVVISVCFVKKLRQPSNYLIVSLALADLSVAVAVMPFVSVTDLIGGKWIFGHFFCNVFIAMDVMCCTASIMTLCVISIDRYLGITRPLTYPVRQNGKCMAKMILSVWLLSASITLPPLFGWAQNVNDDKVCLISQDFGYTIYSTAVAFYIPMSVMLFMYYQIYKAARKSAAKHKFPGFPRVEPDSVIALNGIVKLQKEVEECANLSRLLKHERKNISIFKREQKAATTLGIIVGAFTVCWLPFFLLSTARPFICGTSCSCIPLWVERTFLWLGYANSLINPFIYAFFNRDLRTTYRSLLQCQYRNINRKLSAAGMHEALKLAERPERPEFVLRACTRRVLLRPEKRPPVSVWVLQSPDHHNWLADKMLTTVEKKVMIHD
Outline: as §1

[3] = target: serotoninergic 5-HT6 receptor (Homo sapiens, UniProt P50406); test: Binding assay 5-HT6 (h), [3H]LSD, CHO cells; design: expressed in transfected cells; host or cells: CHO cells; conditions: for inhibition at 1 µM: read-out: 5-HT6
Chain of serotoninergic 5-HT6 receptor (P50406 whole entry): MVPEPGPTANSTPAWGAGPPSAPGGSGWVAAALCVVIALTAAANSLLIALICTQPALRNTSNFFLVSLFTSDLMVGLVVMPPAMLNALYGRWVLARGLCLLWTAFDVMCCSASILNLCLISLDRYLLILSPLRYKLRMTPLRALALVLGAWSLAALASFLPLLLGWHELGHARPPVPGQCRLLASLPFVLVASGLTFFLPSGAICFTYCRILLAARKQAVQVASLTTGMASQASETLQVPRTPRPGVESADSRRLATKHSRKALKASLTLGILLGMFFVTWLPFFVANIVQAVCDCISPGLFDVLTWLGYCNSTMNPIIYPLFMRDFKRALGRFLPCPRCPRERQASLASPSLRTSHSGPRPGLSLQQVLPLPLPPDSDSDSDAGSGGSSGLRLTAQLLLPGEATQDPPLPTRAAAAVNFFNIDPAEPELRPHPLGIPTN
Outline: as §1

dopaminergic D2 receptor = dopaminergic D2 receptor (Homo sapiens, UniProt P14416); test: Binding assay D2S (h), [3H]methyl-spiperone, HEK-293 cells; design: expressed in transfected cells; host or cells: HEK-293 cells; conditions: for inhibition at 1 µM: read-out: D2 [%]
Chain of dopaminergic D2 receptor (P14416 1-414 isoform P14416-2): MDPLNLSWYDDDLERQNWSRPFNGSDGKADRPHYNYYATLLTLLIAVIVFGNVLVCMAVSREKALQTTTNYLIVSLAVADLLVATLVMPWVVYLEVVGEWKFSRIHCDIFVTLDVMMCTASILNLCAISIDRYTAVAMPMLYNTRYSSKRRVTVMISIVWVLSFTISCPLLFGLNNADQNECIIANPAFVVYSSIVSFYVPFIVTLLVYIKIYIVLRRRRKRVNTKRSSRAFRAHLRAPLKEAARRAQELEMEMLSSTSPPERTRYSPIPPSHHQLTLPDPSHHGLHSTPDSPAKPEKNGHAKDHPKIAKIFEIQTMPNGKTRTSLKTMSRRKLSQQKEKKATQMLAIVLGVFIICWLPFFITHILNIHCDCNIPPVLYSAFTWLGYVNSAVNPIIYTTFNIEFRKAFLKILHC
Outline: as §1

[4] = target: T1, serotoninergic 5-HT1A receptor (Homo sapiens, UniProt P08908); test: Binding assay 5-HT1A (h), [3H]8-OH-DPAT, HEK-293 cells; design: expressed in transfected cells; host or cells: HEK-293 cells; conditions: for inhibition at 1 µM: read-out: 5-HT1A
T1 sequence (P08908 1-422): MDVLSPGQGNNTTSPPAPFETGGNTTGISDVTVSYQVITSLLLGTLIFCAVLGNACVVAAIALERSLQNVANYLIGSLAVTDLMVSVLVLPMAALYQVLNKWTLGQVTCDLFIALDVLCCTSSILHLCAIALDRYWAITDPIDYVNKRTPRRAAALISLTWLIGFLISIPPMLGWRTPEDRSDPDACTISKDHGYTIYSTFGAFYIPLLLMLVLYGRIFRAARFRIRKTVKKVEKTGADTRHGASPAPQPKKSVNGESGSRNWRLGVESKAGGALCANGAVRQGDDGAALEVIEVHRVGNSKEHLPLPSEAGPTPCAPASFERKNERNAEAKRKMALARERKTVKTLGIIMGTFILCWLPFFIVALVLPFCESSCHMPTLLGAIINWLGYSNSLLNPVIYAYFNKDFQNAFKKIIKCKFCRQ
Outline: as §1

[5] = target: T2, serotonine transporter (SERT) receptor (Homo sapiens, UniProt P31645); test: Binding assay SERT (h), [3H]imipramine, CHO cells; conditions: for inhibition at 1 µM: read-out: SERT [%]
T2 construct: expressed in transfected cells; host or cells: CHO cells
T2 sequence (P31645 whole entry): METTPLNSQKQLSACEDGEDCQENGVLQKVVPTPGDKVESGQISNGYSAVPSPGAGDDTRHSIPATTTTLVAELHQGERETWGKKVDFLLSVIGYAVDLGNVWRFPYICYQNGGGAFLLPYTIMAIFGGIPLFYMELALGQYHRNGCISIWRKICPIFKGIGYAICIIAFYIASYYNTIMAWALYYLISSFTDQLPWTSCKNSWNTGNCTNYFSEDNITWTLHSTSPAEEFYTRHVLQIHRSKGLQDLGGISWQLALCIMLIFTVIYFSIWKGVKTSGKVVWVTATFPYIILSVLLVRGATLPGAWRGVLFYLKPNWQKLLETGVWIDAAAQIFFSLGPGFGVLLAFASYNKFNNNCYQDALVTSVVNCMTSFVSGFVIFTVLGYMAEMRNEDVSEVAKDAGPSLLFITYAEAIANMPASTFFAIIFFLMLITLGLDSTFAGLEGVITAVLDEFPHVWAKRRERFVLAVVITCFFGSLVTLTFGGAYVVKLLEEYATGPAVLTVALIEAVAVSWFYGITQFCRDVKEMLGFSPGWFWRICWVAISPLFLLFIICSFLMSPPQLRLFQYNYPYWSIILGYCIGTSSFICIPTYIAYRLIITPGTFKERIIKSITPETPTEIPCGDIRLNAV
Outline: as §1

dopaminergic D3 receptor = dopaminergic D3 receptor (Homo sapiens, UniProt P35462); test: Binding assay D3 (h), [3H]methyl-spiperone, CHO cells; design: expressed in transfected cells; host or cells: CHO cells; conditions: for inhibition at 1 µM: read-out: D3 [%]
Chain of dopaminergic D3 receptor (P35462 whole entry): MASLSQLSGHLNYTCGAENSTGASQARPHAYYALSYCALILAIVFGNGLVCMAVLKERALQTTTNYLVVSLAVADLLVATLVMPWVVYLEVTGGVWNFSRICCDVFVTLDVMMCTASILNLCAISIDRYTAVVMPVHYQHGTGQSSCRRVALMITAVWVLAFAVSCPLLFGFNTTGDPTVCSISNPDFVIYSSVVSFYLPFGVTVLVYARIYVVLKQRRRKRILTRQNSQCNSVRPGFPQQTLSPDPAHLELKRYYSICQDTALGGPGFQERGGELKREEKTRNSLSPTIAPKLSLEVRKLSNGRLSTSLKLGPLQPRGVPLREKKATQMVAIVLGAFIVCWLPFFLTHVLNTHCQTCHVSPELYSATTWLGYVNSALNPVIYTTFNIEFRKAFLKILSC
Outline: as §1

[6] = percent inhibition of control specific binding, compounds tested at 1×10^−6 M

Chain of serotoninergic 5-HT2A receptor (P28223 whole entry): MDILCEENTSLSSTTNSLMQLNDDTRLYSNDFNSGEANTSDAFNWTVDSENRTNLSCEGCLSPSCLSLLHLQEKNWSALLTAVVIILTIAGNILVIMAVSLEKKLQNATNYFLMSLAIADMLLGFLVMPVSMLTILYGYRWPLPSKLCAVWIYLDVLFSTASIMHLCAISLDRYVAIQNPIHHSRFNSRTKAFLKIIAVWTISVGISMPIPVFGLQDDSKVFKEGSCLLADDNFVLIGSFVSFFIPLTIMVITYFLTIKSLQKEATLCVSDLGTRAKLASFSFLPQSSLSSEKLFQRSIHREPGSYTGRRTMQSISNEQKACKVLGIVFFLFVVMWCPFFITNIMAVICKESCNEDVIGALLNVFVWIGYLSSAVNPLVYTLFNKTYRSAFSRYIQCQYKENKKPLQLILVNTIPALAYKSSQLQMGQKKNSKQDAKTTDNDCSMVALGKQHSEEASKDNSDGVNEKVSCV

| Compound | inhibition at 1 µM [1] [%] | α1 [%] (adrenergic α1 receptor) | inhibition at 1 µM [2] [%] | inhibition at 1 µM [3] [%] | inhibition at 1 µM (dopaminergic D2 receptor) [%] | inhibition at 1 µM [4] [%] | inhibition at 1 µM [5] [%] | inhibition at 1 µM (dopaminergic D3 receptor) [%] | 5-HT2A [1, 6] [%] | 5-HT7 [2, 6] [%] | 5-HT6 [3, 6] [%] | D2 [%] (dopaminergic D2 receptor; [6]) | 5-HT1A [4, 6] [%] | SERT [%] [5, 6] [%] | D3 [%] (dopaminergic D3 receptor; [6]) |
| --- | --- | --- | --- | --- | --- | --- | --- | --- | --- | --- | --- | --- | --- | --- | --- |
| O=C1COc2c(cccc2N2CCN(CCCCNS(=O)(=O)c3ccc(F)cc3)CC2)N1 [Compound 428, 4-Fluoro-N-[4-[4-(3-oxo-4H-1,4-benzoxazin-8-yl)piperazin-1-yl]butyl]benzenesulphonamide] | 30 | 72 | 78 | 33 | 78 | 90 | 23 | 104 | – | – | – | – | – | – | – |
| O=C1COc2c(cccc2N2CCN(CCCCNS(=O)(=O)c3ccc(C(F)(F)F)cc3)CC2)N1 [Compound 429, N-[4-[4-(3-oxo-4H-1,4-benzoxazin-8-yl)piperazin-1-yl]butyl]-4-(trifluoromethyl)benzenesulphonamide] | 35 | 78 | 83 | -57 | 61 | 88 | 22 | 104 | – | – | – | – | – | – | – |
| O=C1COc2c(cccc2N2CCN(CCCCNS(=O)(=O)c3cccc(C(F)(F)F)c3)CC2)N1 [Compound 430, N-[4-[4-(3-oxo-4H-1,4-benzoxazin-8-yl)piperazin-1-yl]butyl]-3-(trifluoromethyl)benzenesulphonamide] | 87 | 46 | 84 | 94 | 69 | 86 | 19 | 101 | – | – | – | – | – | – | – |
| O=C1COc2c(cccc2N2CCN(CCCCNS(=O)(=O)c3ccc(Cl)s3)CC2)N1 [Compound 431, 5-Chloro-N-[4-[4-(3-oxo-4H-1,4-benzoxazin-8-yl)piperazin-1-yl]butyl]thiophene-2-sulphonamide] | 31 | 88 | 67 | 35 | 68 | 101 | 12 | 103 | – | – | – | – | – | – | – |
| O=S(=O)(NCCCN1CC=C(c2c[nH]c3ccc(F)cc23)CC1)c1cccc(O)c1 [Compound 437, N-[3-[4-(5-Fluoro-1H-indol-3-yl)-3,6-dihydro-2H-pyridin-1-yl]propyl]-3-hydroxybenzenesulphonamide] | 74 | 52 | 83 | 47 | 57 | 24 | 105 | 100 | – | – | – | – | – | – | – |
| Cc1[nH]c2ccc(Cl)cc2c1C1=CCN(CCCNS(=O)(=O)c2cccc3ccccc23)CC1 [Compound 441, N-[3-[4-(5-Chloro-2-methyl-1H-indol-3-yl)-3,6-dihydro-2H-pyridin-1-yl]propyl]-naphthalene-1-sulphonamide] | 57 | 16 | 82 | 84 | 77 | 54 | 1 | 72 | – | – | – | – | – | – | – |
| Cc1[nH]c2ccc(Cl)cc2c1C1=CCN(CCCNS(=O)(=O)c2ccc(F)cc2)CC1 [Compound 443, N-[3-[4-(5-Chloro-2-methyl-1H-indol-3-yl)-3,6-dihydro-2H-pyridin-1-yl]propyl]-4-fluorobenzenesulphonamide] | 67 | 41 | 54 | 92 | 22 | 59 | -9 | 71 | – | – | – | – | – | – | – |
| Cc1[nH]c2ccc(Cl)cc2c1C1=CCN(CCNS(=O)(=O)c2cccc3ccccc23)CC1 [Compound 447, N-[2-[4-(5-Chloro-2-methyl-1H-indol-3-yl)-3,6-dihydro-2H-pyridin-1-yl]ethyl]-naphthalene-1-sulphonamide] | 19 | 1 | 34 | 106 | 3 | 42 | 23 | -17 | – | – | – | – | – | – | – |
| Cc1[nH]c2ccc(Cl)cc2c1C1=CCN(CCNS(=O)(=O)c2ccc(F)cc2)CC1 [Compound 449, N-[2-[4-(5-Chloro-2-methyl-1H-indol-3-yl)-3,6-dihydro-2H-pyridin-1-yl]ethyl]-4-fluorobenzenesulphonamide] | 76 | 12 | 81 | 93 | 31 | 57 | 21 | 34 | – | – | – | – | – | – | – |
| N-[4-[4-(1H-Indol-4-yl)piperazin-1-yl]butyl]-1,3-benzodioxole-5-sulphonamide [Compound 365] | – | 100 | – | – | – | – | – | – | 55 | 95 | 67 | 99 | 90 | 25 | 100 |
